This assay addresses Nucleotide-binding oligomerization domain-containing protein 2 (Homo sapiens, UniProt Q9HC29). As to the kind of experiment: Inhibition of MDP-induced human NOD2 signaling expressed in HEK-Blue cells at 10 uM preincubated for 3 hrs followed by MDP-stimulation for 20 hrs by spectrophotometry based SEAP reporter gene assay relative to control. Format: cell-based.
Sequence of Nucleotide-binding oligomerization domain-containing protein 2 (Q9HC29 whole entry, the tested form may be a part): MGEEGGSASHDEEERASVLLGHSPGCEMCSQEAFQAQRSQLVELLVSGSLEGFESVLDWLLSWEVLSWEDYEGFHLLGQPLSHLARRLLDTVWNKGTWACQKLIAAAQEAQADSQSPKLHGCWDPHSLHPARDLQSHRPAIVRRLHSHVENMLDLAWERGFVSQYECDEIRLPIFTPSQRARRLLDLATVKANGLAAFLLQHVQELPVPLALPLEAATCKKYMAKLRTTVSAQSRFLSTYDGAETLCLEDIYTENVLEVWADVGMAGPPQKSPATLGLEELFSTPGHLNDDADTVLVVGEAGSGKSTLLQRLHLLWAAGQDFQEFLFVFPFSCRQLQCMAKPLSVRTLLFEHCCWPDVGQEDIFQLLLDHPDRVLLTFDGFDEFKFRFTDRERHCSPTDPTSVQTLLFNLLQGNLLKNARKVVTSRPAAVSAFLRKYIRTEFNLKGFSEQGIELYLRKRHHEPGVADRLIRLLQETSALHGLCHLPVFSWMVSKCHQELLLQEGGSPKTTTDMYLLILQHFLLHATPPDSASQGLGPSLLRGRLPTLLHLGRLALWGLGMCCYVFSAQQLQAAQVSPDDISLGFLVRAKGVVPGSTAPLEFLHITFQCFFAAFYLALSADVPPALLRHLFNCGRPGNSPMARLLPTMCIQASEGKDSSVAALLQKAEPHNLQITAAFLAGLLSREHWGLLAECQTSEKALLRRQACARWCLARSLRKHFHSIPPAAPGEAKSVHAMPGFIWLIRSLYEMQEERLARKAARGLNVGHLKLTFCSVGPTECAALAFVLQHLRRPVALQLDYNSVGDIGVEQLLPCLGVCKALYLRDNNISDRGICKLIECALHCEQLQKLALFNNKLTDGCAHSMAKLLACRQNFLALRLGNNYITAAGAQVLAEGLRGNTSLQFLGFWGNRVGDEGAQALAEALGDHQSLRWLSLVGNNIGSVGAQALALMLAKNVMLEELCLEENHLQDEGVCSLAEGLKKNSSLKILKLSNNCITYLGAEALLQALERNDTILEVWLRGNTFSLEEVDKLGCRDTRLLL
On to `CC(=O)O[C@H]1C(=O)[C@@]2(C)[C@H]([C@H](OC(=O)c3ccccc3)[C@]3(O)C[C@H](OC(=O)[C@H](OCCC(=O)NCCCC[C@H](NC(=O)CC[C@@H](NC(=O)[C@H](C)NC(=O)/C=C/c4ccc(F)cc4)C(N)=O)C(=O)O)[C@@H](NC(=O)c4ccccc4)c4ccccc4)C(C)=C1C3(C)C)[C@]1(OC(C)=O)CO[C@@H]1C[C@@H]2O`, for which the inhibition worked out at 27%.

For the compound `CC(=O)O[C@@]12CO[C@@H]1C[C@H](O)[C@@]1(C)C(=O)[C@H](O)C3=C(C)[C@@H](OC(=O)[C@H](OCCC(=O)NCCCC[C@H](NC(=O)CC[C@@H](NC(=O)[C@H](C)NC(=O)c4ccccc4)C(N)=O)C(=O)O)[C@@H](NC(=O)C(C)(C)C)c4ccccc4)C[C@@](O)([C@@H](OC(=O)c4ccccc4)[C@H]21)C3(C)C`, the inhibition came to 20%.

For the compound `CC(=O)O[C@@]12CO[C@@H]1C[C@H](O)[C@@]1(C)C(=O)[C@H](O)C3=C(C)[C@@H](OC(=O)[C@H](OCCC(=O)NCCCC[C@H](NC(=O)CC[C@@H](NC(=O)[C@H](C)NC(=O)/C=C/c4cccs4)C(N)=O)C(=O)O)[C@@H](NC(=O)C(C)(C)C)c4ccccc4)C[C@@](O)([C@@H](OC(=O)c4ccccc4)[C@H]21)C3(C)C`, the inhibition is 26%.

On to `CC(=O)O[C@@]12CO[C@@H]1C[C@H](O)[C@@]1(C)C(=O)[C@H](O)C3=C(C)[C@@H](OC(=O)[C@H](OCCC(=O)NCCCC[C@H](NC(=O)CC[C@@H](NC(=O)[C@H](C)NC(=O)/C=C/c4ccc(O)cc4)C(N)=O)C(=O)O)[C@@H](NC(=O)C(C)(C)C)c4ccccc4)C[C@@](O)([C@@H](OC(=O)c4ccccc4)[C@H]21)C3(C)C`, for which the inhibition was found to be 23%.

On to `CC(=O)O[C@@]12CO[C@@H]1C[C@H](O)[C@@]1(C)C(=O)[C@H](O)C3=C(C)[C@@H](OC(=O)[C@H](OCCC(=O)NCCCC[C@H](NC(=O)CC[C@@H](NC(=O)[C@H](C)NC(=O)/C=C/c4ccc(F)cc4F)C(N)=O)C(=O)O)[C@@H](NC(=O)C(C)(C)C)c4ccccc4)C[C@@](O)([C@@H](OC(=O)c4ccccc4)[C@H]21)C3(C)C`, for which the inhibition was found to be 28%.

On to `CC(=O)O[C@@]12CO[C@@H]1C[C@H](O)[C@@]1(C)C(=O)[C@H](O)C3=C(C)[C@@H](OC(=O)[C@H](OCCC(=O)NCCCC[C@H](NC(=O)CC[C@@H](NC(=O)[C@H](C)NC(=O)/C=C/c4ccc(F)cc4)C(N)=O)C(=O)O)[C@@H](NC(=O)C(C)(C)C)c4ccccc4)C[C@@](O)([C@@H](OC(=O)c4ccccc4)[C@H]21)C3(C)C`, for which the inhibition is 19%.

For the compound `CC(=O)O[C@@]12CO[C@@H]1C[C@H](O)[C@@]1(C)C(=O)[C@H](O)C3=C(C)[C@@H](OC(=O)[C@H](OCCC(=O)NCCCC[C@H](NC(=O)CC[C@@H](NC(=O)[C@H](C)NC(=O)/C=C/c4cccc(F)c4)C(N)=O)C(=O)O)[C@@H](NC(=O)C(C)(C)C)c4ccccc4)C[C@@](O)([C@@H](OC(=O)c4ccccc4)[C@H]21)C3(C)C`, the inhibition was found to be 30%.

For the compound `CC(=O)O[C@H]1C(=O)[C@@]2(C)[C@H]([C@H](OC(=O)c3ccccc3)[C@]3(O)C[C@H](OC(=O)[C@H](OCCC(=O)NCCCC[C@H](NC(=O)CC[C@@H](NC(=O)[C@H](C)NC(=O)/C=C/c4ccc(F)cc4F)C(N)=O)C(=O)O)[C@@H](NC(=O)c4ccccc4)c4ccccc4)C(C)=C1C3(C)C)[C@]1(OC(C)=O)CO[C@@H]1C[C@@H]2O`, the inhibition was determined as 21%.

Take `CC(=O)O[C@@]12CO[C@@H]1C[C@H](O)[C@@]1(C)C(=O)[C@H](O)C3=C(C)[C@@H](OC(=O)[C@H](OCCC(=O)NCCCC[C@H](NC(=O)CC[C@@H](NC(=O)[C@H](C)NC(=O)c4ccc5ccccc5n4)C(N)=O)C(=O)O)[C@@H](NC(=O)C(C)(C)C)c4ccccc4)C[C@@](O)([C@@H](OC(=O)c4ccccc4)[C@H]21)C3(C)C`: the inhibition was determined as 28%.

In the case of `CC(=O)O[C@H]1C(=O)[C@@]2(C)[C@H]([C@H](OC(=O)c3ccccc3)[C@]3(O)C[C@H](OC(=O)[C@H](OCCC(=O)NCCCC[C@H](NC(=O)CC[C@@H](NC(=O)[C@H](C)NC(=O)/C=C/c4ccc(C)cc4)C(N)=O)C(=O)O)[C@@H](NC(=O)c4ccccc4)c4ccccc4)C(C)=C1C3(C)C)[C@]1(OC(C)=O)CO[C@@H]1C[C@@H]2O`, the inhibition came to 41%.

Take `CC(=O)O[C@@]12CO[C@@H]1C[C@H](O)[C@@]1(C)C(=O)[C@H](O)C3=C(C)[C@@H](OC(=O)[C@H](OCCC(=O)NCCCC[C@H](NC(=O)CC[C@@H](NC(=O)[C@H](C)NC(=O)/C=C/c4ccc(F)c(F)c4)C(N)=O)C(=O)O)[C@@H](NC(=O)C(C)(C)C)c4ccccc4)C[C@@](O)([C@@H](OC(=O)c4ccccc4)[C@H]21)C3(C)C`: the inhibition was 24%.

In the case of `CC(=O)O[C@H]1C(=O)[C@]2(C)[C@@H](OCCC(=O)NCCCC[C@H](NC(=O)CC[C@@H](NC(=O)[C@H](C)NC(=O)/C=C/c3ccc(Cl)cc3F)C(N)=O)C(N)=O)C[C@H]3OC[C@@]3(OC(C)=O)[C@H]2[C@H](OC(=O)c2ccccc2)[C@]2(O)C[C@H](O)C(C)=C1C2(C)C`, the inhibition turned out to be 9%.

As for `CCCCOC(=O)[C@H](OCCC(=O)NCCCC[C@H](NC(=O)CC[C@@H](NC(=O)[C@H](C)NC(=O)/C=C/c1ccc(Cl)cc1F)C(N)=O)C(N)=O)[C@@H](NC(=O)c1ccccc1)c1ccccc1`, the inhibition is -6%.

`COc1cccc(/C=C/C(=O)N[C@@H](C)C(=O)N[C@H](CCC(=O)N[C@@H](CCCCNC(=O)CCO[C@@H](C(=O)O[C@H]2C[C@@]3(O)[C@@H](OC(=O)c4ccccc4)[C@@H]4[C@]5(OC(C)=O)CO[C@@H]5C[C@H](O)[C@@]4(C)C(=O)[C@H](OC(C)=O)C(=C2C)C3(C)C)[C@@H](NC(=O)c2ccccc2)c2ccccc2)C(=O)O)C(N)=O)c1`: the inhibition amounted to 45%.

Turning to `CC(=O)O[C@@]12CO[C@@H]1C[C@H](O)[C@@]1(C)C(=O)[C@H](OCCC(=O)NCCCC[C@H](NC(=O)CC[C@@H](NC(=O)[C@H](C)NC(=O)/C=C/c3ccc(Cl)cc3F)C(N)=O)C(N)=O)C3=C(C)[C@@H](O)C[C@@](O)([C@@H](OC(=O)c4ccccc4)[C@H]21)C3(C)C`, the inhibition was determined as 22%.

Turning to `CC(=O)O[C@@]12CO[C@@H]1C[C@H](O)[C@@]1(C)C(=O)[C@H](O)C3=C(C)[C@@H](OC(=O)[C@H](OCCC(=O)NCCCC[C@H](NC(=O)CC[C@@H](NC(=O)[C@H](C)NC(=O)/C=C/c4ccc(Cl)cc4F)C(N)=O)C(=O)O)[C@@H](NC(=O)C(C)(C)C)c4ccccc4)C[C@@](O)([C@@H](OC(=O)c4ccccc4)[C@H]21)C3(C)C`, the inhibition turned out to be 32%.

With `CC(=O)O[C@@]12CO[C@@H]1C[C@H](O)[C@@]1(C)C(=O)[C@H](O)C3=C(C)[C@@H](OC(=O)[C@H](OCCC(=O)NCCCC[C@H](NC(=O)CC[C@@H](NC(=O)[C@H](C)NC(=O)/C=C/c4ccc(C)cc4)C(N)=O)C(=O)O)[C@@H](NC(=O)C(C)(C)C)c4ccccc4)C[C@@](O)([C@@H](OC(=O)c4ccccc4)[C@H]21)C3(C)C`, the inhibition turned out to be 25%.

As for `CC(=O)O[C@H]1C(=O)[C@@]2(C)[C@H]([C@H](OC(=O)c3ccccc3)[C@]3(O)C[C@H](OCCC(=O)NCCCC[C@H](NC(=O)CC[C@@H](NC(=O)[C@H](C)NC(=O)/C=C/c4ccc(Cl)cc4F)C(N)=O)C(N)=O)C(C)=C1C3(C)C)[C@]1(OC(C)=O)CO[C@@H]1C[C@@H]2O`, the inhibition came out at 6%.

With `CC(=O)O[C@H]1C(=O)[C@@]2(C)[C@H]([C@H](OC(=O)c3ccccc3)[C@]3(O)C[C@H](OC(=O)[C@H](OCCC(=O)NCCCC[C@H](NC(=O)CC[C@@H](NC(=O)[C@H](C)NC(=O)/C=C/c4ccc(Br)cc4)C(N)=O)C(=O)O)[C@@H](NC(=O)c4ccccc4)c4ccccc4)C(C)=C1C3(C)C)[C@]1(OC(C)=O)CO[C@@H]1C[C@@H]2O`, the inhibition stood at 44%.

For `CC(=O)O[C@@]12CO[C@@H]1C[C@H](O)[C@@]1(C)C(=O)[C@H](O)C3=C(C)[C@@H](OC(=O)[C@H](OCCC(=O)NCCCC[C@H](NC(=O)CC[C@@H](NC(=O)[C@H](C)NC(=O)COc4cccc5ccccc45)C(N)=O)C(=O)O)[C@@H](NC(=O)C(C)(C)C)c4ccccc4)C[C@@](O)([C@@H](OC(=O)c4ccccc4)[C@H]21)C3(C)C`, the inhibition was found to be 34%.

Regarding `CC(=O)O[C@H]1C(=O)[C@@]2(C)[C@H]([C@H](OC(=O)c3ccccc3)[C@]3(O)C[C@H](OC(=O)[C@H](OCCC(=O)NCCCC[C@H](NC(=O)CC[C@@H](NC(=O)[C@H](C)NC(=O)/C=C/c4ccc(F)c(F)c4)C(N)=O)C(=O)O)[C@@H](NC(=O)c4ccccc4)c4ccccc4)C(C)=C1C3(C)C)[C@]1(OC(C)=O)CO[C@@H]1C[C@@H]2O`, the inhibition stood at 29%.

In the case of `CC(=O)O[C@H]1C(=O)[C@@]2(C)[C@H]([C@H](OC(=O)c3ccccc3)[C@]3(O)C[C@H](OC(=O)[C@H](OCCC(=O)NCCCC[C@H](NC(=O)CC[C@@H](NC(=O)[C@H](C)NC(=O)/C=C/c4ccc(Cl)cc4F)C(N)=O)C(=O)O)[C@@H](NC(=O)c4ccccc4)c4ccccc4)C(C)=C1C3(C)C)[C@]1(OC(C)=O)CO[C@@H]1C[C@@H]2O`, the inhibition is 45%.

In the case of `COC(=O)[C@H](OCCC(=O)NCCCC[C@H](NC(=O)CC[C@@H](NC(=O)[C@H](C)NC(=O)/C=C/c1ccc(Cl)cc1F)C(N)=O)C(N)=O)[C@@H](NC(=O)c1ccccc1)c1ccccc1`, the inhibition is -7%.

In the case of `CC(=O)O[C@H]1C(=O)[C@@]2(C)[C@H]([C@H](OC(=O)c3ccccc3)[C@]3(O)C[C@H](OC(=O)[C@H](OCCC(=O)NCCCC[C@H](NC(=O)CC[C@@H](NC(=O)[C@H](C)NC(=O)/C=C/c4ccc(Cl)cc4)C(N)=O)C(=O)O)[C@@H](NC(=O)c4ccccc4)c4ccccc4)C(C)=C1C3(C)C)[C@]1(OC(C)=O)CO[C@@H]1C[C@@H]2O`, the inhibition was 44%.

In the case of `CC(=O)O[C@@]12CO[C@@H]1C[C@H](O)[C@@]1(C)C(=O)[C@H](O)C3=C(C)[C@@H](OC(=O)[C@H](OCCC(=O)NCCCC[C@H](NC(=O)CC[C@@H](NC(=O)[C@H](C)NC(=O)c4ccc(Cl)cc4)C(N)=O)C(=O)O)[C@@H](NC(=O)C(C)(C)C)c4ccccc4)C[C@@](O)([C@@H](OC(=O)c4ccccc4)[C@H]21)C3(C)C`, the inhibition was 14%.

As to `CC(=O)O[C@@]12CO[C@@H]1C[C@H](O)[C@@]1(C)C(=O)[C@H](O)C3=C(C)[C@@H](OC(=O)[C@H](OCCC(=O)NCCCC[C@H](NC(=O)CC[C@@H](NC(=O)[C@H](C)NC(=O)/C=C/c4ccc(F)cc4Cl)C(N)=O)C(N)=O)[C@@H](NC(=O)C(C)(C)C)c4ccccc4)C[C@@](O)([C@@H](OC(=O)c4ccccc4)[C@H]21)C3(C)C`, the inhibition came to 58%.
